Results reported in paper PMC13429874, “ABHD2 activity is not required for the non-genomic action of progesterone on human sperm” (Human Reproduction (Oxford, England), 2026).
“Also recorded” adds a separate entry of the source.

Experiments:
[1] = target: T1, ABHD2^L33–E425 (Homo sapiens, UniProt P08910); experiment: Differential scanning fluorimetry (DSF) with purified ABHD2^L33–E425; format: binding; details: for ΔTm shift for ABHD2^L33-425 determined by DSF: purified protein
T1 construct: expression for ABHD2 amino acids L33–E425, in which a predicted transmembrane domain (amino acids 1–32) is removed; His6-FLAG (N); made in house; host or cells: E. coli BL21(DE3)-R3-pRARE2
T1 sequence (P08910 33-425): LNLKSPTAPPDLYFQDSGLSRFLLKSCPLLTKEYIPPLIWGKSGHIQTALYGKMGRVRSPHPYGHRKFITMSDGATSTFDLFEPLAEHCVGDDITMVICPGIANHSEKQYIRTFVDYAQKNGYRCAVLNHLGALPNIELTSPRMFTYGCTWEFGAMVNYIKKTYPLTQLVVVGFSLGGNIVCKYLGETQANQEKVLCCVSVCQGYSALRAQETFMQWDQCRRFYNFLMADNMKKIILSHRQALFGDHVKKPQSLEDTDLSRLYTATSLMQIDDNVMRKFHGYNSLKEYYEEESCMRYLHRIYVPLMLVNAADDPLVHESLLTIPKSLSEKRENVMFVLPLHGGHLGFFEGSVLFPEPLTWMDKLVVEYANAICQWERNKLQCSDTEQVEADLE

[2] = target: T2, full-length human ABHD2 (ABHD2^FL) (Homo sapiens, UniProt P08910); experiment: ABHD2^FL enzymatic activity assay with 7-HCA substrate; format: biochemical; details: for IC50: Supplementary Table S2, read-out: IC50 measured in ABHD2^FL in the 7-HCA Assay
T2 construct: TEV site-eGFP-8xHis (C, cleaved yes); made in house; host or cells: SF9 insect cells (baculovirus)
T2 sequence (P08910 1-425): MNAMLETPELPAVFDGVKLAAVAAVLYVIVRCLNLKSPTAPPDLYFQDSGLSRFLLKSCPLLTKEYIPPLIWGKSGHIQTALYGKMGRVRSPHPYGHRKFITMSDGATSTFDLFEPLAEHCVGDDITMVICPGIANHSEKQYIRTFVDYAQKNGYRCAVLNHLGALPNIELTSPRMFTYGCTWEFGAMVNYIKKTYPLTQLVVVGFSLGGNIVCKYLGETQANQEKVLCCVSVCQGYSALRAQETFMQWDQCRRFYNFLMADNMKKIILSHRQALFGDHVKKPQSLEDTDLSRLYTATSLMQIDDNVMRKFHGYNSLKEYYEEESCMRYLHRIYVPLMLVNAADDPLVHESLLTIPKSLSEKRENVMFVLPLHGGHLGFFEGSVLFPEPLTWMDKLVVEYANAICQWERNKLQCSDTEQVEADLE

[3] = target: T1, ABHD2^L33–E425; experiment: ABHD2^L33-E425 fluorometric enzymatic activity assay with 7-HCA substrate; format: biochemical; details: for IC50: 10 nM enzyme, 10 µM 7-HCA, read-out: IC50 for ABHD2^L33-425, fluorometric assay using 7-HCA
[4] = tested on: human sperm; experiment: Sperm intracellular Ca2+ measurements (Fluo-4); format: cell-based; details: for compound-evoked changes in [Ca2+]i: 10 µM compound; for effect on progesterone-induced Ca2+ signal (amplitude and waveform): compounds 10 µM, TS150 60 µM, progesterone 3 µM
Protocol: Measurements of the changes in sperm intracellular Ca^2+ concentration ([Ca^2+]i) were performed on motile human sperm purified by swim-up. Semen samples were allowed to liquefy for 15–60 min at 37°C, and 0.5–1 ml liquified semen was layered beneath 4 ml human tubal fluid medium (HTF; 97.8 mM NaCl, 4.69 mM KCl, 0.2 mM MgSO4, 0.37 mM KH2PO4, 2.04 mM CaCl2, 2.78 mM glucose, 0.33 mM sodium pyruvate, 21.4 mM lactic acid, 4 mM NaHCO3, and 21 mM HEPES pH 7.35 adjusted with NaOH) in 50 ml conical tubes. Motile sperm were allowed to swim up into the HTF for 60–90 min at 37°C, collected, washed twice (700 × g, 20 min, 37°C), and resuspended in HTF containing 3 mg/ml HSA at a density of 1 × 10^7 sperm/ml. Changes of [Ca^2+]i in motile human sperm were measured as previously described ([Rennhack et al., 2018]), using a fluorescence plate-reader assay (FLUOstar Omega, BMG LABTECH) with 384-well plates. Swim-up-purified sperm were loaded with Fluo4-AM (5 μM, Thermo Fisher Scientific, Waltham, MA, USA) and Pluronic F-127 (0.05% w/v) for 20 min at 37°C. Excess dye was removed by centrifugation at 700 × g for 5 min, supernatant removal, and resuspension to 5 × 10^6 sperm/ml in HTF.
For recordings, wells of a 384-well plate were filled with 50 μl of the dye-loaded sperm suspension. Fluorescence was excited at 480 nm, and emission was recorded at 520 nm using a plate reader (Fluostar Omega, BMG Labtech). After establishing a baseline for at least 60 s, 25 µl test compound solutions were added and the fluorescence response recorded. After 4 min, 7.5 µl progesterone was added to reach a final concentration of 3 µM, and ensuing changes in fluorescence were recorded. For the analysis of compound-evoked Ca^2+ signal, basal fluorescence (F0) was determined prior to compound addition. For the determination of inhibitory effects of compounds on progesterone-evoked Ca^2+ signals, basal fluorescence (F0) was determined before progesterone addition. The CatSper inhibitor TS150 ([Schierling et al., 2023]) was used as a control. Each compound was tested in technical duplicates across ≥3 biological replicates, using sperm from at least two donors, and performed on at least two separate days.
Data analysis and graphical representation were performed with GraphPad Prism software version 10.6.1 (San Diego, CA, USA). Changes in Fluo-4 fluorescence are depicted as ΔF/F0 (%), i.e. the change in fluorescence (ΔF) relative to the mean basal fluorescence (F0) before application of buffer or compounds/ligands, to correct for intra- and inter-experimental variations in basal fluorescence among individual wells or to correct for compound-evoked changes in fluorescence. Signal amplitudes evoked in the presence of compounds were normalized to the maximal signal amplitude evoked by 3 µM progesterone in the absence of the compound (set to 1) to ease comparisons between experiments.

[5] = tested on: human sperm; experiment: Sperm hyperactivation assay (CASA); format: cell-based; details: 10 µM compound, 30 min; for effect on progesterone-induced hyperactivation: 3 µM progesterone
Protocol: Sperm hyperactivation was assessed in human sperm purified by density gradient centrifugation. Semen samples (n = 7) were allowed to liquefy for 15–30 min at 37°C, and up to 2 ml of liquified semen was layered onto a two-step GM501 gradient system (45%/90%; Gynemed; Sierksdorf, Germany) pre-equilibrated at 37°C. Gradients were centrifuged for 20 min at 400 × g (no break). The 90% pellet was collected, washed in SpermActive medium (Gynemed; composition per manufacturer: NaCl, KCl, MgSO4.7H2O, KH2PO4, 1.77 mM CaCl2.2H2O, D(+)-glucose anhydrous, sodium pyruvate, sodium lactate, EDTA, alanyl-glutamine, essential and non-essential amino acids, 25.71 mM NaHCO3, 15 mM HEPES, 5 g/l human serum albumin, 10 mg/l gentamicin, and phenol red), and incubated for at least 2 h at 37°C, 5% CO2.
For compound testing, sperm suspensions with 7.5 × 10^6 sperm/ml in SpermActive were treated with either DMSO (vehicle) or 10 µM test compound. For basal and induced hyperactivation conditions, DMSO or progesterone (3 µM), respectively, was added. Samples were incubated for 30 min at 37°C, 5% CO2, before motility analysis.
Motility was analyzed using a CASA system (CEROSII^TM Animal Motility, software version 1.16; Hamilton Thorne, Beverly, MA, USA), mounted on an Axiolab 5 microscope (Zeiss, Germany), equipped with a TPi-SX Thermal Plate (Tokai Hit; Shizuoka-ken, Japan) and a JAI CM-040-GE CCD camera (JAI; Tokyo, Japan). Leja slides (20 µm chamber depth; Leja Products B.V., Nieuw-Vennep, The Netherlands) were pre-warmed to 37°C, cleaned with lens paper, and loaded by capillary action with 6 µl sperm suspension; capillary correction was set to 1.3. Sperm tracks were recorded at 37°C using a 10× negative-phase objective, acquiring 60 frames at 60 Hz with 4 ms exposure and gain set to 600. For each sample and condition, 300–500 motile sperm from at least 10 non-overlapping fields were analyzed. Hyperactive sperm were identified using the SORT function with the following Boolean argument: VCL > 150 µm/s and LIN < 50% and ALH > 7 µm. For each sample and condition, the percentage of hyperactive sperm was normalized to the percentage of motile sperm, and the mean of two technical duplicates was reported.
Statistical analysis was performed using GraphPad Prism 10 for Windows (version 10.6.1). Data normality was assessed using Shapiro–Wilk test. Differences between basal and induced hyperactivation were evaluated using a paired t-test, with effective pairing confirmed across all comparisons. P < 0.05 was considered statistically significant.

ΔTm shift for ABHD2^L33-425 determined by DSF [1] [°C] | IC50 [3] [nM] | IC50 [2] [µM] | Compound | further results
 |  |  | 17α-hydroxyprogesterone [reference compound] | effect on heat-induced denaturation of ABHD2^L33–E425 (DSF binding) ([1]; 40 µM steroid, 30 min pre-incubation): no binding was observed
 |  |  | C[C@]12CC[C@@H]3c4ccc(O)cc4CC[C@H]3[C@@H]1CC[C@@H]2O [17β-estradiol] | effect on enzymatic activity of purified ABHD2^FL ([2]; 7-HCA and RB substrates (Suppl. Fig. S4A,B), weak effects at ≥5 µM): did not alter; effect on enzymatic activity of purified ABHD2^L33–E425 ([3]; 5 µM steroid or triterpenoid, 300 nM 7-HCA): did not alter
3.0 | 1200 |  | O=C(N1CCCCC1)N1CCCC[C@@H]1Cc1ccccc1 [(R)-1] | compound-evoked changes in [Ca2+]i [4]: only minuscule changes; effect on progesterone-induced Ca2+ signal (amplitude and waveform) [4]: similar; effect on progesterone-induced hyperactivation [5]: not affected; effect on basal hyperactivation [5]: No statistically significant differences; also recorded: did not affect
8.4 | 220 | 0.24 | O=C(N1CCCCC1)N1CCCC[C@@H]1c1ccccc1 [(R)-2] | compound-evoked changes in [Ca2+]i [4]: only minuscule changes; effect on progesterone-induced Ca2+ signal (amplitude and waveform) [4]: similar; effect on progesterone-induced hyperactivation [5]: not affected; effect on basal hyperactivation [5]: No statistically significant differences; also recorded: did not affect
2.5 | 3000 |  | O=C(N1CCCCC1)N1CCCC[C@H]1Cc1ccccc1 [(S)-1] | 
2.7 | 2100 | 5.9 | O=C(N1CCCCC1)N1CCCC[C@H]1c1ccccc1 [(S)-2] | 
3.3 | 940 | 4.2 | Cc1ccc(C2CCCCN2C(=O)N2CCCCC2)cc1 (stereo not shown) [Compound 5] | effect on melting temperature / thermal stability of ABHD2^L33-E425 (DSF), in words ([1]; 10 µM compound, 30 min pre-incubation): increased melting temperature
